Assay results published in publication PMC2222910 (The Journal of General Physiology, 1999).

Molecular target: T1, P2X2 purinoceptor (Rattus norvegicus, UniProt P49653)
T1 sequence (P49653 1-472): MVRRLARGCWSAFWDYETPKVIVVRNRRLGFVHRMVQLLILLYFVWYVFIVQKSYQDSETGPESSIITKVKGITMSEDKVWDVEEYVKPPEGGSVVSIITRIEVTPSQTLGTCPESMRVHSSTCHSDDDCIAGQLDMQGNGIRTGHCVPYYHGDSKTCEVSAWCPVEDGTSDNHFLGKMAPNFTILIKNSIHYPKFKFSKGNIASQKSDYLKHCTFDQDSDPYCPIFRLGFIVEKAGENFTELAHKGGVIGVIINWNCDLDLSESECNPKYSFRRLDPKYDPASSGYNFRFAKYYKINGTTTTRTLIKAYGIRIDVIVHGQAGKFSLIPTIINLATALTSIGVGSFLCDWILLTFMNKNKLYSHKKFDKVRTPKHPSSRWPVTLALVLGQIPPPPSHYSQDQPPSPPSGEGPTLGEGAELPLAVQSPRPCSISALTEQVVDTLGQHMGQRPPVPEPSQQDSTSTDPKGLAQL
Assay: single channel patch clamp of outside-out patches, Xenopus oocytes
Format: cell-based

## Nc1ncnc2c1ncn2[C@@H]1O[C@H](COP(=O)(O)OP(=O)(O)OP(=O)(O)O)[C@@H](O)[C@H]1O [ATP]
  EC50: 11.2 µM
